Measured values: PubChem BioAssay AID1963841 (Molecular Pharmacology Branch, DTP, NCI, 2024)

System: 439559-082-T-J2-PDC spheroid viability
Test: Anticancer human tumor 439559-082-T-J2-PDC patient-derived colon adenocarcinoma cell line growth inhibition [POLQ]
Conditions: spheroids with HUVEC and MSC; for IC50: curve of first compound; for viability, T/C: stronger effect = lower value
In short: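 PDC + HUVEC + MSC complex spheroids; POLQ inhibitors ± partner drugs; top conc. at/near clinical Cmax, else 10 microM (SN-38 1 microM), half-log dilutions; 37 degrees C, 5% CO2.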

[1] = second compound 0.0316 µM, first compound 0.0316 µM
[2] = second compound 0.0316 µM, first compound 0.1 µM
[3] = second compound 0.0316 µM, first compound 0.316 µM
[4] = second compound 0.0316 µM, first compound 1 µM
[5] = second compound 0.0316 µM, first compound 3.16 µM
[6] = second compound 0.0316 µM, first compound 10 µM
[7] = second compound 0.1 µM, first compound 0.0316 µM
[8] = second compound 0.1 µM, first compound 0.1 µM
[9] = second compound 0.1 µM, first compound 0.316 µM
[10] = second compound 0.1 µM, first compound 1 µM
[11] = second compound 0.1 µM, first compound 3.16 µM
[12] = second compound 0.1 µM, first compound 10 µM
[13] = second compound 0.316 µM, first compound 0.0316 µM
[14] = second compound 0.316 µM, first compound 0.1 µM
[15] = second compound 0.316 µM, first compound 0.316 µM
[16] = second compound 0.316 µM, first compound 1 µM
[17] = second compound 0.316 µM, first compound 3.16 µM
[18] = second compound 0.316 µM, first compound 10 µM
[19] = second compound 1 µM, first compound 0.0316 µM
[20] = second compound 1 µM, first compound 0.1 µM
[21] = second compound 1 µM, first compound 0.316 µM
[22] = second compound 1 µM, first compound 1 µM
[23] = second compound 1 µM, first compound 3.16 µM
[24] = second compound 1 µM, first compound 10 µM
[25] = second compound 3.16 µM, first compound 0.0316 µM
[26] = second compound 3.16 µM, first compound 0.1 µM
[27] = second compound 3.16 µM, first compound 0.316 µM
[28] = second compound 3.16 µM, first compound 1 µM
[29] = second compound 3.16 µM, first compound 3.16 µM
[30] = second compound 3.16 µM, first compound 10 µM
[31] = second compound 10 µM, first compound 0.0316 µM
[32] = second compound 10 µM, first compound 0.1 µM
[33] = second compound 10 µM, first compound 0.316 µM
[34] = second compound 10 µM, first compound 1 µM
[35] = second compound 10 µM, first compound 3.16 µM
[36] = second compound 10 µM, first compound 10 µM
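Also: spheroids exposed to compounds for seven days before readout.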
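For viability, T/C in this document: 100% = DMSO vehicle control viability.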

Compound: C#Cc1c(F)ccc2cc(O)cc(-c3ncc4c(N5CC6CCC(C5)N6)nc(OCC56CCCN5CC(F)C6)nc4c3F)c12 (stereo not drawn) + COC1C(OC(N)=O)C(O)C(Oc2ccc3c(O)c(NC(=O)c4ccc(O)c(CC=C(C)C)c4)c(=O)oc3c2C)OC1(C)C
- IC50 (second compound 0.0316 µM): > 10 µM
- IC50 (second compound 0.1 µM): > 10 µM
- IC50 (second compound 0.316 µM): > 10 µM
- IC50 (second compound 1 µM): > 10 µM
- IC50 (second compound 3.16 µM): > 10 µM
- IC50 (second compound 10 µM): > 10 µM
- viability, T/C [1]: 87.5%
- viability, T/C [2]: 90.6%
- viability, T/C [3]: 73.8%
- viability, T/C [4]: 69.2%
- viability, T/C [5]: 58.4%
- viability, T/C [6]: 50.3%
- viability, T/C [7]: 96%
- viability, T/C [8]: 89.1%
- viability, T/C [9]: 80%
- viability, T/C [10]: 68.9%
- viability, T/C [11]: 59.7%
- viability, T/C [12]: 52.1%
- viability, T/C [13]: 101%
- viability, T/C [14]: 84.8%
- viability, T/C [15]: 75.8%
- viability, T/C [16]: 67.7%
- viability, T/C [17]: 61.1%
- viability, T/C [18]: 51.1%
- viability, T/C [19]: 96.5%
- viability, T/C [20]: 88%
- viability, T/C [21]: 75%
- viability, T/C [22]: 63.9%
- viability, T/C [23]: 57.4%
- viability, T/C [24]: 49.8%
- viability, T/C [25]: 97.2%
- viability, T/C [26]: 93.9%
- viability, T/C [27]: 70.4%
- viability, T/C [28]: 63.9%
- viability, T/C [29]: 60.6%
- viability, T/C [30]: 49%
- viability, T/C [31]: 103%
- viability, T/C [32]: 92.1%
- viability, T/C [33]: 73.5%
- viability, T/C [34]: 67.2%
- viability, T/C [35]: 64.4%
- viability, T/C [36]: 49.6%

Compound: CC1COCCN1c1cc(C2(O)CC3CCC(C2)O3)c2cnn(-c3ccn[nH]3)c2n1 (stereo not drawn) + COC1C(OC(N)=O)C(O)C(Oc2ccc3c(O)c(NC(=O)c4ccc(O)c(CC=C(C)C)c4)c(=O)oc3c2C)OC1(C)C
- IC50 (second compound 0.0316 µM): 2.58 µM
- IC50 (second compound 0.1 µM): 2.62 µM
- IC50 (second compound 0.316 µM): 2.08 µM
- IC50 (second compound 1 µM): 1.92 µM
- IC50 (second compound 3.16 µM): 1.84 µM
- IC50 (second compound 10 µM): 1.25 µM
- viability, T/C [1]: 97%
- viability, T/C [2]: 89.6%
- viability, T/C [3]: 67.5%
- viability, T/C [4]: 58.4%
- viability, T/C [5]: 48.7%
- viability, T/C [6]: 45.1%
- viability, T/C [7]: 95.1%
- viability, T/C [8]: 86.9%
- viability, T/C [9]: 68.4%
- viability, T/C [10]: 58.3%
- viability, T/C [11]: 46.9%
- viability, T/C [12]: 46.8%
- viability, T/C [13]: 99%
- viability, T/C [14]: 83.1%
- viability, T/C [15]: 69.9%
- viability, T/C [16]: 56.8%
- viability, T/C [17]: 42.2%
- viability, T/C [18]: 46.3%
- viability, T/C [19]: 93.6%
- viability, T/C [20]: 89.5%
- viability, T/C [21]: 66.5%
- viability, T/C [22]: 56.1%
- viability, T/C [23]: 48.2%
- viability, T/C [24]: 42.4%
- viability, T/C [25]: 89.2%
- viability, T/C [26]: 85%
- viability, T/C [27]: 65.3%
- viability, T/C [28]: 54.3%
- viability, T/C [29]: 47.9%
- viability, T/C [30]: 45.5%
- viability, T/C [31]: 89.1%
- viability, T/C [32]: 87.4%
- viability, T/C [33]: 66.4%
- viability, T/C [34]: 52.5%
- viability, T/C [35]: 46.7%
- viability, T/C [36]: 44.8%

Compound: CCc1cc2c(N3CCc4c(cc(Cn5ccnc5)cc4-c4cn(C)nc4C(F)(F)F)C3=O)cc(C)nc2c(OC)n1 + COC1C(OC(N)=O)C(O)C(Oc2ccc3c(O)c(NC(=O)c4ccc(O)c(CC=C(C)C)c4)c(=O)oc3c2C)OC1(C)C
- IC50 (second compound 0.0316 µM): > 10 µM
- IC50 (second compound 0.1 µM): > 10 µM
- IC50 (second compound 0.316 µM): > 10 µM
- IC50 (second compound 1 µM): > 10 µM
- IC50 (second compound 3.16 µM): > 10 µM
- IC50 (second compound 10 µM): > 10 µM
- viability, T/C [1]: 104%
- viability, T/C [2]: 103%
- viability, T/C [3]: 98.8%
- viability, T/C [4]: 102%
- viability, T/C [5]: 95.4%
- viability, T/C [6]: 91.4%
- viability, T/C [7]: 102%
- viability, T/C [8]: 101%
- viability, T/C [9]: 91.7%
- viability, T/C [10]: 95.2%
- viability, T/C [11]: 92.7%
- viability, T/C [12]: 94.3%
- viability, T/C [13]: 95.5%
- viability, T/C [14]: 93.9%
- viability, T/C [15]: 102%
- viability, T/C [16]: 97.7%
- viability, T/C [17]: 94.9%
- viability, T/C [18]: 101%
- viability, T/C [19]: 99.4%
- viability, T/C [20]: 105%
- viability, T/C [21]: 103%
- viability, T/C [22]: 95.7%
- viability, T/C [23]: 94.3%
- viability, T/C [24]: 93.3%
- viability, T/C [25]: 93.1%
- viability, T/C [26]: 101%
- viability, T/C [27]: 96.6%
- viability, T/C [28]: 90.4%
- viability, T/C [29]: 95.7%
- viability, T/C [30]: 94.4%
- viability, T/C [31]: 105%
- viability, T/C [32]: 94.4%
- viability, T/C [33]: 93.6%
- viability, T/C [34]: 91.2%
- viability, T/C [35]: 95.7%
- viability, T/C [36]: 83.8%

Compound: O=C(Nc1ccc(O)c(NS(=O)(=O)c2ccc(F)cc2)c1)c1ccc(-c2ccccc2)cc1 + COC1C(OC(N)=O)C(O)C(Oc2ccc3c(O)c(NC(=O)c4ccc(O)c(CC=C(C)C)c4)c(=O)oc3c2C)OC1(C)C
- IC50 (second compound 0.0316 µM): > 10 µM
- IC50 (second compound 0.1 µM): > 10 µM
- IC50 (second compound 0.316 µM): > 10 µM
- IC50 (second compound 1 µM): > 10 µM
- IC50 (second compound 3.16 µM): > 10 µM
- IC50 (second compound 10 µM): > 10 µM
- viability, T/C [1]: 93.1%
- viability, T/C [2]: 94.8%
- viability, T/C [3]: 94.1%
- viability, T/C [4]: 97.9%
- viability, T/C [5]: 106%
- viability, T/C [6]: 101%
- viability, T/C [7]: 98.8%
- viability, T/C [8]: 99.4%
- viability, T/C [9]: 102%
- viability, T/C [10]: 107%
- viability, T/C [11]: 103%
- viability, T/C [12]: 97.3%
- viability, T/C [13]: 99.3%
- viability, T/C [14]: 99.9%
- viability, T/C [15]: 99.8%
- viability, T/C [16]: 97%
- viability, T/C [17]: 104%
- viability, T/C [18]: 102%
- viability, T/C [19]: 102%
- viability, T/C [20]: 98.4%
- viability, T/C [21]: 93.5%
- viability, T/C [22]: 103%
- viability, T/C [23]: 104%
- viability, T/C [24]: 89.8%
- viability, T/C [25]: 107%
- viability, T/C [26]: 93.2%
- viability, T/C [27]: 92.3%
- viability, T/C [28]: 96.5%
- viability, T/C [29]: 99.8%
- viability, T/C [30]: 98.3%
- viability, T/C [31]: 97.2%
- viability, T/C [32]: 98.7%
- viability, T/C [33]: 102%
- viability, T/C [34]: 103%
- viability, T/C [35]: 101%
- viability, T/C [36]: 104%
